Numbered stars: 1 amine (or outer) side, 2 acyl side, 3 side chain; on linkers, the order of the positions; unused ones are H or OH. Square brackets hold non-standard residues; d marks the D form. Side chains are listed from the residue outwards. Peptide text beside a SMILES is read from it. * marks the point of attachment. γGlu = O=C(O)[C@H](CCC(=O)[*:2])N[*:1]; Desaminotyrosyl = O=C(CCc1ccc(O)cc1)*; Palmitoyl = CCCCCCCCCCCCCCCC(=O)*; 2Thi = N[C@@H](Cc1cccs1)C(=O)O
Tests used:
Assay in all cases: cAMP induction, firefly luciferase reporter assay in HEK293 cells co-transfected with receptor
Format in all cases: cell-based
[1] = biological target: T1, glucagon receptor (Homo sapiens, UniProt P47871)
T1 construct: expressed in transfected cells; host or cells: HEK293
Experimental: (§1) The ability of glucagon analogs to induce cAMP was measured in a firefly luciferase-based reporter assay. […] At the end of the incubation 100 microliters of LucLite luminescence substrate reagent (Perkin-Elmer, Wellesley, Mass.) were added to each well. […] Effective 50% concentrations were calculated by using Origin software (OriginLab, Northampton, Mass.

[2] = biological target: T2, GLP-1 receptor (Homo sapiens, UniProt P43220)
T2 construct: expressed in transfected cells; host or cells: HEK293
Experimental: as §1

[3] = biological target: T3, GIP receptor (Homo sapiens, UniProt P48546)
T3 construct: expressed in transfected cells; host or cells: HEK293
T3 sequence (P48546 22-466): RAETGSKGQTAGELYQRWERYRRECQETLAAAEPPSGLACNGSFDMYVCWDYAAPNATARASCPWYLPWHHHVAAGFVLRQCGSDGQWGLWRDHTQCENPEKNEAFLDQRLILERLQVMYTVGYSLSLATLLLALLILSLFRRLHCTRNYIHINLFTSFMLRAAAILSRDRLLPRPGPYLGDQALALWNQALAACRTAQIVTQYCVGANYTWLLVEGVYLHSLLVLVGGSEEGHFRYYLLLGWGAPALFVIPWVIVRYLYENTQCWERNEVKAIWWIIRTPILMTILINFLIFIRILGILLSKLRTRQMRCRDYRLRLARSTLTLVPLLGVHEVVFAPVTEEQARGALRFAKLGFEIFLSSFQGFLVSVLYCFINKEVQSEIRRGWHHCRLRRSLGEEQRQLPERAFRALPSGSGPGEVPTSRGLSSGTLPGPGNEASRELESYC
Experimental: as §1

[4] = Table 1, analogs of SEQ ID NO: 37
[5] = Table 2, analogs of SEQ ID NO: 10

T2 sequence (P43220 24-463): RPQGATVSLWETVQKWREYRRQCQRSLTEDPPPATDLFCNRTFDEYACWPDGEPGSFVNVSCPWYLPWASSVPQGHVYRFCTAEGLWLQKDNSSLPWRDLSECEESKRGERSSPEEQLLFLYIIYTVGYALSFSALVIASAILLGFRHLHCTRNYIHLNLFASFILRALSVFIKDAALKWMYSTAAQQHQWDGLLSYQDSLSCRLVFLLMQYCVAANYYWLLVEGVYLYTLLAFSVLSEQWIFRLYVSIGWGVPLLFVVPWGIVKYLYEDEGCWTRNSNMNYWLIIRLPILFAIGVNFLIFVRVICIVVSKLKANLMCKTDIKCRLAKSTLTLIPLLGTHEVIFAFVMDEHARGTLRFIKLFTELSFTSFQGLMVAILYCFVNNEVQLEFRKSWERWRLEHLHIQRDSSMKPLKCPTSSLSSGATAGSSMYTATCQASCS
T1 sequence (P47871 26-477): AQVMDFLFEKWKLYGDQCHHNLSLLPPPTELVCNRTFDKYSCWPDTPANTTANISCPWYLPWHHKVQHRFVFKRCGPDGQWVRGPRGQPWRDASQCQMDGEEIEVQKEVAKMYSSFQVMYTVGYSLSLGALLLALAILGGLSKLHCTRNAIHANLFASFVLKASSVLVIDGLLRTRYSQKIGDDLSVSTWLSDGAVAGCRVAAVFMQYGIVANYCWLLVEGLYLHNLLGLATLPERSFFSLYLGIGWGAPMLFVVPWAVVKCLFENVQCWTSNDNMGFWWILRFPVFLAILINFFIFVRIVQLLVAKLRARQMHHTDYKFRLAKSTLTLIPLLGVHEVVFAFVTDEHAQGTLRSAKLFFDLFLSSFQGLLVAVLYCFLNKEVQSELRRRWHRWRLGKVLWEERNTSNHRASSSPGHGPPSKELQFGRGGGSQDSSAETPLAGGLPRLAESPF

SMILES | EC50 [1, 4] [pM] | EC50 [2, 4] [pM] | EC50 [3, 4] [pM] | EC50 [1, 5] [pM] | EC50 [2, 5] [pM] | EC50 [3, 5] [pM]
CCCCCCCCCCCCCCCC(=O)N[C@@H](CCC(=O)NCCCC[C@H](NC(=O)[C@H](CC(=O)O)NC(=O)[C@H](CO)NC(=O)[C@@H](NC(=O)[C@H](Cc1ccccc1)NC(=O)[C@@H](NC(=O)CNC(=O)[C@H](CCC(N)=O)NC(=O)[C@H](C)NC(=O)C(CN)Cc1c[nH]cn1)[C@@H](C)O)[C@@H](C)O)C(=O)N[C@@H](CO)C(=O)N[C@@H](CCCCN)C(=O)N[C@@H](Cc1ccc(O)cc1)C(=O)N[C@@H](CC(C)C)C(=O)N[C@@H](CC(=O)O)C(=O)N[C@@H](CCC(=O)O)C(=O)N[C@@H](CCCNC(=N)N)C(=O)N[C@@H](C)C(=O)N[C@@H](C)C(=O)N[C@@H](CCC(N)=O)C(=O)N[C@@H](CC(=O)O)C(=O)N[C@@H](Cc1ccccc1)C(=O)N[C@H](C(=O)N[C@@H](CCC(N)=O)C(=O)N[C@@H](Cc1c[nH]c2ccccc12)C(=O)N[C@@H](CC(C)C)C(=O)N[C@@H](CC(C)C)C(=O)N[C@@H](CCC(=O)O)C(=O)NCC(=O)NCC(=O)N1CCC[C@H]1C(=O)N[C@@H](CO)C(=O)N[C@@H](CO)C(=O)NCC(=O)N[C@@H](C)C(=O)N1CCC[C@H]1C(=O)N1CCC[C@H]1C(=O)N1CCC[C@H]1C(=O)N[C@@H](CO)C(N)=O)C(C)C)C(=O)O (some centres unmarked) [compound 25] | 24 | 3 | 64 | – | – | –
CCCCCCCCCCCCCCCC(=O)N[C@@H](CCC(=O)NCCCC[C@H](NC(=O)[C@H](CC(=O)O)NC(=O)[C@H](CO)NC(=O)[C@@H](NC(=O)[C@H](Cc1ccccc1)NC(=O)[C@@H](NC(=O)CNC(=O)[C@H](CCC(N)=O)NC(=O)[C@H](C)NC(=O)CCc1ccc(O)cc1)[C@@H](C)O)[C@@H](C)O)C(=O)N[C@@H](CO)C(=O)N[C@@H](CCCCN)C(=O)N[C@@H](Cc1ccc(O)cc1)C(=O)N[C@@H](CC(C)C)C(=O)N[C@@H](CC(=O)O)C(=O)N[C@@H](CCC(=O)O)C(=O)N[C@@H](CCCNC(=N)N)C(=O)N[C@@H](C)C(=O)N[C@@H](C)C(=O)N[C@@H](CCC(N)=O)C(=O)N[C@@H](CC(=O)O)C(=O)N[C@@H](Cc1ccccc1)C(=O)N[C@H](C(=O)N[C@@H](CCC(N)=O)C(=O)N[C@@H](Cc1c[nH]c2ccccc12)C(=O)N[C@@H](CC(C)C)C(=O)N[C@@H](CC(C)C)C(=O)N[C@@H](CCC(=O)O)C(=O)NCC(=O)NCC(=O)N1CCC[C@H]1C(=O)N[C@@H](CO)C(=O)N[C@@H](CO)C(=O)NCC(=O)N[C@@H](C)C(=O)N1CCC[C@H]1C(=O)N1CCC[C@H]1C(=O)N1CCC[C@H]1C(=O)N[C@@H](CO)C(N)=O)C(C)C)C(=O)O [compound 11] (Desaminotyrosyl-AQGTFTSDK([γGlu-Palmitoyl])SKYLDERAAQDFVQWLLEGGPSSGAPPPS-NH2) | 16 | 2 | 2 | – | – | –
CCCCCCCCCCCCCCCC(=O)N[C@@H](CCC(=O)NCCCC[C@H](NC(=O)[C@H](CC(=O)O)NC(=O)[C@H](CO)NC(=O)[C@@H](NC(=O)[C@H](Cc1ccccc1)NC(=O)[C@@H](NC(=O)CNC(=O)[C@H](CCC(=O)O)NC(=O)[C@H](C)NC(=O)[C@@H](Cc1c[nH]cn1)NC(C)=O)[C@@H](C)O)[C@@H](C)O)C(=O)N[C@@H](CO)C(=O)N[C@@H](CCCCN)C(=O)N[C@@H](Cc1ccc(O)cc1)C(=O)N[C@@H](CC(C)C)C(=O)N[C@@H](CC(=O)O)C(=O)N[C@@H](CCC(=O)O)C(=O)N[C@@H](CCCNC(=N)N)C(=O)N[C@@H](C)C(=O)N[C@@H](C)C(=O)N[C@@H](CCC(N)=O)C(=O)N[C@@H](CC(=O)O)C(=O)N[C@@H](Cc1ccccc1)C(=O)N[C@H](C(=O)N[C@@H](CCC(N)=O)C(=O)N[C@@H](Cc1c[nH]c2ccccc12)C(=O)N[C@@H](CC(C)C)C(=O)N[C@@H](CC(C)C)C(=O)N[C@@H](CCC(=O)O)C(=O)N[C@@H](C)C(=O)NCC(=O)N1CCC[C@H]1C(=O)N[C@@H](CO)C(=O)N[C@@H](CO)C(=O)NCC(=O)N[C@@H](C)C(=O)N1CCC[C@H]1C(=O)N1CCC[C@H]1C(=O)N1CCC[C@H]1C(=O)N[C@@H](CO)C(N)=O)C(C)C)C(=O)O [compound 154] (Ac-[dH]AEGTFTSDK([γGlu-Palmitoyl])SKYLDERAAQDFVQWLLEAGPSSGAPPPS-NH2) | – | – | – | 847 | 4 | 24
CCCCCCCCCCCCCCCC(=O)N[C@@H](CCC(=O)NCCCC[C@H](NC(=O)[C@H](CC(=O)O)NC(=O)[C@H](CO)NC(=O)[C@@H](NC(=O)[C@H](Cc1ccccc1)NC(=O)[C@@H](NC(=O)CNC(=O)[C@H](CCC(N)=O)NC(=O)[C@@H]1CCCN1C(=O)[C@@H](N)Cc1cccs1)[C@@H](C)O)[C@@H](C)O)C(=O)N[C@@H](CO)C(=O)N[C@@H](CCCCN)C(=O)N[C@@H](Cc1ccc(O)cc1)C(=O)N[C@@H](CC(C)C)C(=O)N[C@@H](CC(=O)O)C(=O)N[C@@H](CCC(=O)O)C(=O)N[C@@H](CCCNC(=N)N)C(=O)N[C@@H](C)C(=O)N[C@@H](C)C(=O)N[C@@H](CCC(N)=O)C(=O)N[C@@H](CC(=O)O)C(=O)N[C@@H](Cc1ccccc1)C(=O)N[C@H](C(=O)N[C@@H](CCC(N)=O)C(=O)N[C@@H](Cc1c[nH]c2ccccc12)C(=O)N[C@@H](CC(C)C)C(=O)N[C@@H](CC(C)C)C(=O)N[C@@H](CCC(=O)O)C(=O)NCC(=O)NCC(=O)N1CCC[C@H]1C(=O)N[C@@H](CO)C(=O)N[C@@H](CO)C(=O)NCC(=O)N[C@@H](C)C(=O)N1CCC[C@H]1C(=O)N1CCC[C@H]1C(=O)N1CCC[C@H]1C(=O)N[C@@H](CO)C(N)=O)C(C)C)C(=O)O [compound 33] (H-[2Thi]PQGTFTSDK([γGlu-Palmitoyl])SKYLDERAAQDFVQWLLEGGPSSGAPPPS-NH2) | 121 | 5 | 430 | – | – | –
CCCCCCCCCCCCCCCC(=O)N[C@@H](CCC(=O)NCCCC[C@H](NC(=O)[C@H](CC(=O)O)NC(=O)[C@H](CO)NC(=O)[C@@H](NC(=O)[C@H](Cc1ccccc1)NC(=O)[C@@H](NC(=O)CNC(=O)[C@H](CCC(N)=O)NC(=O)[C@H](C)NC(=O)[C@@H](Cc1cccs1)NC(C)=O)[C@@H](C)O)[C@@H](C)O)C(=O)N[C@@H](CO)C(=O)N[C@@H](CCCCN)C(=O)N[C@@H](Cc1ccc(O)cc1)C(=O)N[C@@H](CC(C)C)C(=O)N[C@@H](CC(=O)O)C(=O)N[C@@H](CCC(=O)O)C(=O)N[C@@H](CCCNC(=N)N)C(=O)N[C@@H](C)C(=O)N[C@@H](C)C(=O)N[C@@H](CCC(N)=O)C(=O)N[C@@H](CC(=O)O)C(=O)N[C@@H](Cc1ccccc1)C(=O)N[C@H](C(=O)N[C@@H](CCC(N)=O)C(=O)N[C@@H](Cc1c[nH]c2ccccc12)C(=O)N[C@@H](CC(C)C)C(=O)N[C@@H](CC(C)C)C(=O)N[C@@H](CCC(=O)O)C(=O)NCC(=O)NCC(=O)N1CCC[C@H]1C(=O)N[C@@H](CO)C(=O)N[C@@H](CO)C(=O)NCC(=O)N[C@@H](C)C(=O)N1CCC[C@H]1C(=O)N1CCC[C@H]1C(=O)N1CCC[C@H]1C(=O)N[C@@H](CO)C(N)=O)C(C)C)C(=O)O [compound 17] | 8 | 5 | 11 | – | – | –
CCCCCCCCCCCCCCCC(=O)N[C@@H](CCC(=O)NCCCC[C@H](NC(=O)[C@H](CC(=O)O)NC(=O)[C@H](CO)NC(=O)[C@@H](NC(=O)[C@H](Cc1ccccc1)NC(=O)[C@@H](NC(=O)CNC(=O)[C@H](CCC(N)=O)NC(=O)CNC(=O)[C@@H](N)Cc1cccs1)[C@@H](C)O)[C@@H](C)O)C(=O)N[C@@H](CO)C(=O)N[C@@H](CCCCN)C(=O)N[C@@H](Cc1ccc(O)cc1)C(=O)N[C@@H](CC(C)C)C(=O)N[C@@H](CC(=O)O)C(=O)N[C@@H](CCC(=O)O)C(=O)N[C@@H](CCCNC(=N)N)C(=O)N[C@@H](C)C(=O)N[C@@H](C)C(=O)N[C@@H](CCC(N)=O)C(=O)N[C@@H](CC(=O)O)C(=O)N[C@@H](Cc1ccccc1)C(=O)N[C@H](C(=O)N[C@@H](CCC(N)=O)C(=O)N[C@@H](Cc1c[nH]c2ccccc12)C(=O)N[C@@H](CC(C)C)C(=O)N[C@@H](CC(C)C)C(=O)N[C@@H](CCC(=O)O)C(=O)NCC(=O)NCC(=O)N1CCC[C@H]1C(=O)N[C@@H](CO)C(=O)N[C@@H](CO)C(=O)NCC(=O)N[C@@H](C)C(=O)N1CCC[C@H]1C(=O)N1CCC[C@H]1C(=O)N1CCC[C@H]1C(=O)N[C@@H](CO)C(N)=O)C(C)C)C(=O)O [compound 29] (H-[2Thi]GQGTFTSDK([γGlu-Palmitoyl])SKYLDERAAQDFVQWLLEGGPSSGAPPPS-NH2; N-terminus assumed) | 38 | 7 | 95 | – | – | –
CCCCCCCCCCCCCCCC(=O)N[C@@H](CCC(=O)NCCCC[C@H](NC(=O)[C@H](CC(=O)O)NC(=O)[C@H](CO)NC(=O)[C@@H](NC(=O)[C@H](Cc1ccccc1)NC(=O)[C@@H](NC(=O)CNC(=O)[C@H](CCC(N)=O)NC(=O)C(C)(C)NC(=O)[C@@H](N)Cc1c[nH]cn1)[C@@H](C)O)[C@@H](C)O)C(=O)N[C@@H](CO)C(=O)N[C@@H](CCCCN)C(=O)N[C@@H](Cc1ccc(O)cc1)C(=O)N[C@@H](CC(C)C)C(=O)N[C@@H](CC(=O)O)C(=O)N[C@@H](CCC(=O)O)C(=O)N[C@@H](CCCNC(=N)N)C(=O)N[C@@H](C)C(=O)N[C@@H](C)C(=O)N[C@@H](CCC(N)=O)C(=O)N[C@@H](CC(=O)O)C(=O)N[C@@H](Cc1ccccc1)C(=O)N[C@H](C(=O)N[C@@H](CCC(N)=O)C(=O)N[C@@H](Cc1c[nH]c2ccccc12)C(=O)N[C@@H](CC(C)C)C(=O)N[C@@H](CC(C)C)C(=O)N[C@@H](CC(=O)O)C(=O)NCC(=O)NCC(=O)N1CCC[C@H]1C(=O)N[C@@H](CO)C(=O)N[C@@H](CO)C(=O)NCC(=O)N[C@@H](C)C(=O)N1CCC[C@H]1C(=O)N1CCC[C@H]1C(=O)N1CCC[C@H]1C(=O)N[C@@H](CO)C(N)=O)C(C)C)C(=O)O [compound 10] | 5 | 5 | – | – | – | –

From patent publication US9868772B2 (INDIANA UNIVERSITY RESEARCH AND TECHNOLOGY CORPORATION, priority 2012, dated 2018)
